Among the data in paper PMC8584985, “Characterization of a new type of neuronal 5-HT G- protein coupled receptor in the cestode nervous system” (PLoS ONE, 2021) are EC50 values, retold here.

Common to all, as to type: cell-based, Echinococcus canadensis
Assay [1] has as its system Eca-5-HT1a. The assay can be described thus: FLIPR calcium assay, agonist concentration-response.
Assay [2] deals with T1, Eca-5-HT1a.
T1 construct: full-length, human codon optimized cDNA in HEK293-GNA15 cells
Description: FLIPR calcium assay (Fluo-4), HEK293-GNA15 cells transiently expressing the receptor; a stable line gave EC50 […].

Assay [3] has as its system T2, Eca-5-HT1a.
T2 construct: full-length mutant in HEK293-Gα15 cells
Description: FLIPR calcium assay on mutant receptor.

One may read the EC50 as the concentration at which the effect is half-maximal. On to `COc1ccc2[nH]cc(CCN)c2c1` [5-MTT, 5-methoxytryptamine], for which the EC50 in the assay on Eca-5-HT1a [1] worked out at 98 ± 50 nM.

As for `NCCc1c[nH]c2ccc(O)cc12` [serotonin], the EC50 amounted to 7.74 ± 0.63 nM in the assay on Eca-5-HT1a [2] and 11500 nM with Eca-5-HT1a [3].

For `CC(N)Cc1c[nH]c2ccc(O)cc12` (stereo not drawn) [α-MTS, α-methylserotonin], the EC50 in the assay on Eca-5-HT1a [1] is 2730 ± 730 nM.
